Measured values as given in US20250387375A1, “SOFALCONE DERIVATIVES AND MEDICAL USE THEREOF” (KAOHSIUNG MEDICAL UNIVERSITY, priority 2024, published 2025).
pIC50: −log10 of the molar value.

Tests used:
[1] = system: human platelet suspension (platelet aggregation caused by TxA2 agonist U46619); test: Platelet aggregation reaction test, U46619-induced; type: cell-based
Procedure: (§1) Blood samples were collected from healthy donors, and acid-citrate-dextrose (ACD) solution was used as an anticoagulant. The blood samples were centrifuged to obtain platelets, and residual plasma was removed by washing to prepare platelet suspension.
(§2) In the experimental method, a platelet aggregometer (Chrono-Log Co., Havertown, PA, USA) was used for tests. The compound to be tested was added to the platelet suspension and reacted for 3 minutes at 37° C. with stirring (1200 rpm). Then, platelet stimulator U46619 or collagen was added to initiate platelet aggregation, and the test time was 5 minutes. The principle of the platelet aggregation test was: when platelets were stimulated to induce aggregation reaction, the light transmission of the platelet suspension would increase; by calculating changes in light transmission of the platelet suspension before and after being stimulated, the percentage of platelet aggregation could be obtained.

[2] = system: human platelet suspension (platelet aggregation caused by collagen); test: Platelet aggregation reaction test, collagen-induced; type: cell-based; settings: read-out: Collagen IC 50
Procedure: as §1, §2

Row | SMILES | pIC50 [1] | pIC50 [2]
1 | O=C(O)COc1ccccc1C(=O)C=Cc1ccco1 [Compound 56] | 4.14 | 4.42
2 | CC(C)CCOc1ccc(CCC(=O)c2ccc(OCCC(C)C)cc2OCC(=O)O)cc1 [Compound 100] | 5.76 | 4.18
3 | CC(C)=CCCC(C)=CCOc1ccc(C=CC(=O)c2ccc(OCC=C(C)CCC=C(C)C)cc2OCCCC(=O)O)cc1 [Compound 4] | 7.30 | 7.22
4 | O=C(O)CCCCCOc1ccccc1C(=O)C=Cc1nccs1 [Compound 80] | 4.29 | 4.20
5 | O=C(O)COc1ccccc1C(=O)/C=C/c1ccc(F)cc1 [Compound 28] | 5.74 | 5.37
6 | O=C(O)CCCCCOc1ccccc1C(=O)C=Cc1ccccc1 [Compound 36] | 6.72 | 6.89
7 | CCOC(=O)COc1cc(O)ccc1C(=O)C=Cc1ccc(F)cc1 [Compound 43] | 4.25 | 5.65
8 | CCOC(=O)COc1ccccc1C(=O)C=Cc1ccc(Br)s1 [Compound 67] | < 4.00 | 5.27
9 | CC(C)=CCCC(C)=CCOc1ccc(C=CC(=O)c2ccc(F)cc2OCCCC(=O)O)cc1 [Compound 10] | 5.28 | 4.28
10 | CC(C)=CCOc1ccc(C=CC(=O)c2ccccc2OCCCCC(=O)O)cc1 [Compound 102] | 5.62 | 5.50
11 | O=C(O)COc1ccccc1C(=O)C=Cc1cccnc1 [Compound 60] | 4.53 | 4.40
12 | CC(C)=CCOc1ccc(C(=O)/C=C/c2cccc(F)c2)c(OCCCC(=O)O)c1 [Compound 14] | 5.29 | 5.15
13 | CC(C)=CCCC(C)=CCOc1ccc(C=CC(=O)c2ccc(OCC=C(C)CCC=C(C)C)cc2OCCCC(=O)O)cc1 [Compound 6] | 5.44 | 4.35
14 | CC1=C(C)C(=O)C(C(CCCCCC(=O)O)c2ccccc2)=C(C)C1=O (centres unmarked) [Seratrodast, reference compound] | 6.15 | 5.28
15 | CCOC(=O)COc1cc(O)ccc1C(=O)C=Cc1cccc(O)c1 [Compound 40] | 4.59 | 4.99
16 | COC(=O)COc1cc(O)ccc1C(=O)CCc1ccc(O)cc1 [Compound 72] | 4.32 | 4.94
17 | O=C(O)CCCCCOc1ccccc1C(=O)C=Cc1ccccn1 [Compound 53] | 4.30 | 4.35
18 | O=C(O)CCCOc1cc(O)ccc1C(=O)C=Cc1ccc(O)cc1 [Compound 70] | 5.27 | 5.18
19 | CCOC(=O)CCCCCOc1ccccc1C(=O)C=Cc1ccccc1 [Compound 111] | 6.80 | 6.66
20 | CC(C)=CCCC(C)=CCOc1ccc(C(=O)C=Cc2ccccc2)c(OCCCC(=O)O)c1 [Compound 7] | 6.31 | 5.39
21 | COC(=O)COc1cc(O)ccc1C(=O)C=Cc1ccc(O)cc1 [Compound 69] | 4.56 | 5.47
22 | CCOC(=O)COc1cc(OC)ccc1C(=O)C=Cc1ccc(OC)cc1 [Compound 48] | < 4.00 | < 4.00
23 | O=C(O)COc1cc(F)ccc1C(=O)/C=C/c1ccccc1 [Compound 29] | 5.81 | 5.10
24 | CCOC(=O)CCCCCOc1ccccc1C(=O)C=Cc1ccccc1F [Compound 38] | 7.52 | 7.15

Row | SMILES | pIC50 [1] | pIC50 [2]
25 | CCOC(=O)COc1ccccc1C(=O)C=Cc1cccs1 [Compound 66] | 4.15 | 5.54
26 | CC(C)=CCOc1ccc(C=CC(=O)c2ccccc2OCCCC(=O)O)cc1 [Compound 99] | 5.48 | 5.19
27 | O=C(O)CCCCCOc1ccccc1C(=O)C=Cc1ccccc1 [Compound 77] | 5.26 | 4.36
28 | COC(=O)COc1cc(OCc2ccccc2)ccc1C(=O)C=Cc1ccc(OCc2ccccc2)cc1 [Compound 85] | < 4.00 | < 4.00
29 | COc1ccc(/C=C/C(=O)c2ccc(OC)cc2OCC(=O)O)cc1 [Compound 18] | < 4.00 | 4.02
30 | Nc1ccsc1C=CC(=O)c1ccccc1OCCCCCC(=O)O [Compound 78] | 5.23 | 5.11
31 | CCOC(=O)CCCCCOc1ccccc1C(=O)C=Cc1cccc(F)c1 [Compound 39] | 7.30 | 7.15
32 | CC(C)=CCOc1ccc(/C=C/C(=O)c2ccccc2OCC(=O)O)cc1 [Compound 27] | 5.29 | 4.73
33 | COC(=O)COc1cc(OCC=C(C)C)ccc1C(=O)CCc1ccc(OCC=C(C)C)cc1 [Compound 74] | < 4.00 | < 4.00
34 | COC(=O)COc1cc(OC(C)=O)ccc1C(=O)C=Cc1ccc(OC(C)=O)cc1 [Compound 81] | 4.55 | 4.62
35 | CC(=O)Nc1ccc(/C=C/C(=O)c2ccc(OCC=C(C)C)cc2OCC(=O)O)cc1 [Compound 26] | 4.80 | 4.39
36 | O=C(O)COc1cc(F)ccc1C(=O)C=Cc1ccc(F)cc1 [Compound 33] | 5.67 | 4.91
37 | CCOC(=O)COc1ccc(C=CC(=O)c2ccc(OCC(=O)OCC)cc2OCC(=O)O)cc1 [Compound 84] | 4.09 | < 4.00
38 | CCOC(=O)CCCCCOc1ccccc1C(=O)C=Cc1cccs1 [Compound 61] | 6.27 | 6.25
39 | O=C(O)COc1cc(OCc2ccccc2)ccc1C(=O)C=Cc1ccc(OCc2ccccc2)cc1 [Compound 88] | 5.04 | 4.35
40 | CCOC(=O)CCCOc1ccccc1C(=O)C=Cc1ccccc1 [Compound 109] | 5.02 | 5.31
41 | O=C(O)CCCOc1ccccc1C(=O)C=Cc1ccccc1 [Compound 34] | 5.02 | 5.19
42 | CCOC(=O)COc1cc(O)ccc1C(=O)C=Cc1ccc(O)c(O)c1 [Compound 41] | 4.46 | 4.82
43 | CCCCCCCCCCOc1ccc(C=CC(=O)c2ccc(OCCCCCCCCCC)cc2OCC(=O)O)cc1 [Compound 97] | < 4.30 | < 4.30
44 | O=C(O)COc1cc(F)ccc1C(=O)C=Cc1ccccc1 [Compound 31] | 5.36 | 5.15
45 | O=C(O)CCCCCOc1ccccc1C(=O)CCc1ccccc1 [Compound 116] | 6.70 | 5.35
46 | COC(=O)COc1cc(OCC=C(C)C)ccc1C(=O)C=Cc1ccc(OCC=C(C)C)cc1 [Compound 68] | < 4.00 | < 4.00
47 | O=C(O)CCCCCOc1cc(F)ccc1C(=O)/C=C/c1ccccc1 [Compound 11] | 4.26 | 5.27
48 | CC(C)=CCOc1ccc(C=CC(=O)c2ccc(OCC=C(C)C)cc2OCCCCCC(=O)O)cc1 [Compound 32] | 5.23 | 4.89

Row | SMILES | pIC50 [1] | pIC50 [2]
49 | O=C(O)CCCCCOc1ccccc1C(=O)CCc1ccccc1 [Compound 49] | 6.30 | 5.31
50 | CCOC(=O)CCCCCCCOc1ccccc1C(=O)C=Cc1ccccc1 [Compound 106] | 5.55 | 4.88
51 | O=C(O)COc1ccccc1C(=O)C=Cc1ccccn1 [Compound 59] | 4.14 | 4.47
52 | CCOC(=O)COc1ccccc1C(=O)C=Cc1ccc(N)cc1 [Compound 46] | 4.19 | 5.29
53 | O=C(O)CCCCCOc1ccccc1C(=O)/C=C/c1cccc(F)c1 [Compound 2] | 7.30 | 7.30
54 | CC(C)=CCOc1ccc(C(=O)/C=C/c2ccccc2)c(OCC(=O)O)c1 [Compound 22] | 4.36 | 4.89
55 | CC(C)=CCOc1ccc(CCC(=O)c2ccc(OCC=C(C)C)cc2OCCCC(=O)O)cc1 [Compound 75] | 6.46 | 5.89
56 | O=C(O)COc1ccccc1C(=O)C=Cc1ccccc1 [Compound 35] | 5.18 | 5.10
57 | CCOC(=O)CCCCCOc1ccccc1C(=O)CCc1ccccc1 [Compound 115] | 6.70 | 5.23
58 | CCOC(=O)CCCCCOc1ccccc1C(=O)C=Cc1ccccn1 [Compound 63] | 5.34 | 5.22
59 | CCOC(=O)CCCCOc1ccccc1C(=O)C=Cc1ccccc1 [Compound 110] | 5.54 | 5.35
60 | COC(=O)CCCOc1cc(OCC=C(C)C)ccc1C(=O)CCc1ccc(OCC=C(C)C)cc1 [Compound 73] | 4.97 | 4.20
61 | CCCCCCOc1ccc(C=CC(=O)c2ccc(OCCCCCC)cc2OCC(=O)OC)cc1 [Compound 91] | < 4.30 | < 4.30
62 | CCCCCCCCCCOc1ccc(C=CC(=O)c2ccc(OCCCCCCCCCC)cc2OCC(=O)OC)cc1 [Compound 93] | < 4.30 | < 4.30
63 | CCOC(=O)COc1ccccc1C(=O)C=Cc1ccco1 [Compound 65] | 4.11 | 5.50
64 | CC(C)=CCOc1ccc(/C=C/C(=O)c2ccc(F)cc2OCCCC(=O)O)cc1 [Compound 9] | 5.26 | 5.29
65 | O=C(O)CCCCOc1ccccc1C(=O)C=Cc1ccccc1 [Compound 101] | 5.45 | 5.49
66 | O=C(O)COc1ccccc1C(=O)C=Cc1ccc(Br)s1 [Compound 58] | 4.14 | 4.39
67 | CC(C)=CCOc1ccc(C(=O)/C=C/c2ccc(F)cc2)c(OCCCC(=O)O)c1 [Compound 15] | 7.30 | 6.46
68 | CCOC(=O)COc1ccccc1C(=O)C=Cc1ccc(O)cc1 [Compound 47] | 4.45 | 4.79
69 | O=C(O)CCCCCOc1ccccc1C(=O)/C=C/c1ccccc1F [Compound 1] | 6.29 | 7.15
70 | COC(=O)COc1cc(OCc2ccc(OC)cc2)ccc1C(=O)C=Cc1ccc(OCc2ccc(OC)cc2)cc1 [Compound 87] | < 4.00 | < 4.00
